Source: US8877758B2, “Combinations of medicaments, containing PDE4-inhibitors and EP4-receptor-antagonists” (Boehringer Ingelheim International GmbH, priority 2010, dated 2014)
“Also recorded” adds a separate entry of the source.

Columns and labels:
male Wistar rats [1] = assay: Experiment 4: four-day oral treatment of rats, roflumilast-mediated effects with or without AH-6809; assay type: in vivo, rat
Procedure: group 2 (“AH-6809 group”): Six male Wistar rats were given a daily dosage of 10 mg/kg AH-6809 (preferential EP2 antagonist) at 1300 hours.

male Wistar rats [2] = assay: Experiment 3: four-day oral treatment of rats, roflumilast-mediated effects with or without MF-498; assay type: in vivo, rat
male Wistar rats [3] = assay: Experiment 1: four-day oral treatment of rats, roflumilast-mediated effects with or without diclofenac
Procedure: Six male Wistar rats in each group were treated for four days with the following substances (all substances are given p.o.=orally):
Group 1 (“control group”): Six male Wistar rats were given a daily dose of 0.5% Natrosol (placebo) at the times 0800, 1300 and 1700 hours.
Group 2 (“diclofenac group”): Six male Wistar rats were given a daily dose of 1 mg/kg of diclofenac (NSAID) at the times 0800 and 1700 hours and 0.5% Natrosol (placebo) at 1300 hours.
Group 3 (“roflumilast group”): Six male Wistar rats were given a daily dose of 0.5% Natrosol (placebo) at 0800 and 1700 hours and 10 mg/kg roflumilast (PDE4 inhibitor) at 1300 hours.
Group 4 (“roflumilast+diclofenac group”): Six male Wistar rats were given a daily dose of 1 mg/kg diclofenac (NSAID) at the times 0800 and 1700 hours and 10 mg/kg roflumilast (PDE4 inhibitor) at 1300 hours.
For pharmacokinetic analysis (determining the plasma levels of the substances) on day 4 one rat from each group was used; these rats were no longer available for other parameters under investigation.
During the experiment the body weights of the animals were determined and the differences in the body weights of the rats from the different groups towards the end of the experiment were shown as a percentage change from the time of the first administration (=day 1, 0800 hours (=time t0)). The average±standard deviation of the body weights at time t0 was 355±17 g.
At the end of the experiment (day 5, 95 hours after t0 (t0=the time of the first administration on day 1, 0800)) the proportion of neutrophils (in % of white blood cells, FIG. 2) were determined from the blood of 4 or 5 of the rats from the individual groups. In addition, the weights of the animals' spleens were measured and the mesenteries were dissected for histopathological investigation for vasculitis (multifocal perivascular mononuclear/polymorphonuclear infiltration).

male Wistar rats [4] = assay: Experiment 2: four-day oral treatment of rats, roflumilast-mediated effects with or without SC-560 or Lumiracoxib; assay type: in vivo, rat
Text: For pharmacokinetic analysis (determining plasma levels of the substances) one rat from each group was used on day 4; these rats were no longer available for the investigation of other parameters.

male Wistar rats [5] = assay: Experiment 3: four-day oral treatment of rats, roflumilast-mediated effects with or without MF-498; assay type: in vivo, rat; settings: 20 mg/kg MF-498 p.o. at 1300 hours, four days, no roflumilast
Procedure: group 2 (“MF-498 group”): Six male Wistar rats were given a daily dosage of 20 mg/kg MF-498 (EP4 antagonist) in each case at 1300 hours.

[6] = AH-6809 and 10 mg/kg Roflumilast p.o. at 1300 hours, four days
[7] = 10 mg/kg Roflumilast p.o. at 1300 hours for four days, read-out day 5, 95 hours after t0
[8] = 2 mg/kg p.o. at 0800 and 1700 hours + 10 mg/kg Roflumilast at 1300 hours, four days
[9] = 1 mg/kg diclofenac p.o. at 0800 and 1700 hours + 10 mg/kg roflumilast at 1300 hours, four days
[10] = 20 mg/kg MF-498 and 10 mg/kg Roflumilast p.o. at 1300 hours, four days

CC(C)Oc1ccc2c(=O)c3cc(C(=O)O)ccc3oc2c1 [AH6809, 6-isopropoxy-9-oxoxanthene-2-carboxylic acid]
parameters measured after administration on its own (body weight, spleen weight, neutrophils, mesenteric vasculitis) (male Wistar rats [1]; 10 mg/kg AH-6809 p.o. at 1300 hours, four days, no roflumilast): very similar to the control group | influence of co-administration on roflumilast-mediated loss of body weight (FIG. 13) (male Wistar rats [1]; [6]): no indications that the EP2 preferential receptor antagonist AH-809 had any influence | influence of co-administration on roflumilast-mediated loss of spleen weight (FIG. 14) (male Wistar rats [1]; [6]): no indications that the EP2 preferential receptor antagonist AH-809 had any influence | influence of co-administration on roflumilast-mediated mesenteric vasculitis (monocyte/polymorphonuclear perivascular infiltration, FIG. 16) (male Wistar rats [1]; [6]): no indications that the EP2 preferential receptor antagonist AH-809 had any influence | influence of co-administration on roflumilast-mediated neutrophilia (FIG. 15) (male Wistar rats [1]; [6]): no indications that the EP2 preferential receptor antagonist AH-809 had any influence

O=C(Nc1c(Cl)cncc1Cl)c1ccc(OC(F)F)c(OCC2CC2)c1 [Roflumilast]
PDE4 inhibitor-mediated side effects observed in the Roflumilast group (male Wistar rats [1]; [7]): loss of body weight; also recorded: loss of spleen weight; also recorded: neutrophilia; also recorded: mesenteric vasculitis | PDE4 inhibitor-mediated side effects observed in the Roflumilast group (male Wistar rats [2]; [7]): loss of body weight; also recorded: loss of spleen weight; also recorded: neutrophilia; also recorded: mesenteric vasculitis | death of animals in the roflumilast group (male Wistar rats [3]; 10 mg/kg roflumilast p.o. daily, six rats per group): died between day 4 and day 5 | PDE4 inhibitor-mediated side effects observed in the Roflumilast group (male Wistar rats [4]; [7]): loss of body weight; also recorded: loss of spleen weight; also recorded: neutrophilia; also recorded: mesenteric vasculitis

Cc1ccc(Nc2c(F)cccc2Cl)c(CC(=O)O)c1 [Lumiracoxib]
effect of co-administration on roflumilast-mediated loss of body weight (FIG. 5) (male Wistar rats [4]; [8]): substantially reduced or prevented | effect of co-administration on roflumilast-mediated loss of spleen weight (FIG. 6) (male Wistar rats [4]; [8]): substantially reduced or prevented | effect of co-administration on roflumilast-mediated mesenteric vasculitis (monocyte/polymorphonuclear perivascular infiltration, FIG. 8) (male Wistar rats [4]; [8]): substantially reduced or prevented | effect of co-administration on roflumilast-mediated neutrophilia (FIG. 7) (male Wistar rats [4]; [8]): substantially reduced or prevented | parameters measured after administration on its own (body weight, spleen weight, neutrophils, mesenteric vasculitis) (male Wistar rats [4]; 2 mg/kg p.o. at 0800 and 1700 hours, four days, no roflumilast): very similar to the control groups

O=C(O)Cc1ccccc1Nc1c(Cl)cccc1Cl [diclofenac]
effect of co-administration on roflumilast-mediated loss of body weight (FIG. 1) (male Wistar rats [3]; [9]): substantially reduced or prevented | effect of co-administration on roflumilast-mediated loss of spleen weight (FIG. 2) (male Wistar rats [3]; [9]): substantially reduced or prevented | effect of co-administration on roflumilast-mediated mesenteric vasculitis (monocyte/polymorphonuclear infiltration into the mesentery, FIG. 4) (male Wistar rats [3]; [9]): substantially reduced or prevented | effect of co-administration on roflumilast-mediated neutrophilia (FIG. 3) (male Wistar rats [3]; [9]): substantially reduced or prevented | parameters measured after administration on its own (body weight, spleen weight, neutrophils, mesenteric vasculitis) (male Wistar rats [3]; 1 mg/kg diclofenac p.o. at 0800 and 1700 hours, four days, no roflumilast): very similar to the control groups

CCOc1c2c(c(OCC)c3ncccc13)CN(c1ccc(CS(=O)(=O)NC(=O)Cc3ccccc3OC)cc1C)C2=O [MF-498, N-{[4-(5,9-diethoxy-6-oxo-6,8-dihydro-7H-pyrrolo(3,4-g)quinolin-7-yl)-3-methylbenzyl)sulphonyl}-2-(2-methoxyphenyl)acetamide]
parameters measured after administration on its own (body weight, spleen weight, neutrophils, mesenteric vasculitis) (male Wistar rats [5]): very similar to the control group | effect of co-administration on roflumilast-mediated loss of body weight (FIG. 9) (male Wistar rats [2]; [10]): substantially reduced | effect of co-administration on roflumilast-mediated loss of spleen weight (FIG. 10) (male Wistar rats [2]; [10]): substantially reduced | effect of co-administration on roflumilast-mediated mesenteric vasculitis (monocyte/polymorphonuclear perivascular infiltration, FIG. 12) (male Wistar rats [2]; [10]): substantially reduced | effect of co-administration on roflumilast-mediated neutrophilia (FIG. 11) (male Wistar rats [2]; [10]): substantially reduced | differences in the weight of the spleen between the Roflumilast group and the Roflumilast+MF-498 group (statistics) (male Wistar rats [2]; 20 mg/kg MF-498 and 10 mg/kg Roflumilast p.o., one animal of the Roflumilast group had an unusually small loss of spleen weight): do not achieve statistical significance
